Measurements from patent publication US20110033946A1, “DETECTION OF SHORT-CHAIN FATTY ACIDS IN BIOLOGICAL SAMPLES” (HEMAQUEST PHARMACEUTICALS, INC., priority 2009, published 2011).
Where “and” joins values, the source holds several entries; their conditions need not be identical. Identical values can stand only once. Like-named read-outs stand apart in the source and are kept apart here.

Columns and labels:
[1] = format: physicochemical, human; conditions: for Bench top stability, Mean concentration / Bench top stability, RE % (mean vs nominal): human, 22.5 h
Description: The following samples were also analyzed either in conjunction with one of the precision and accuracy runs or in one of the additional validation runs. Samples from six lots of control human plasma for specificity. Samples from six lots of control human plasma fortified with internal standard for specificity. Two concentration levels of unextracted QC-samples in triplicate (solvent standards) were analyzed for the evaluation of the recovery of sodium 2,2-dimethylbutyrate and DMV in human plasma. Two levels of QC samples (Low QC and High QC in triplicate) were subjected to three freeze/thaw cycles at approximately −70° C. prior to extraction to evaluate freeze/thaw stability. […] Triplicate low QC samples and triplicate high QC samples were stored for one month and three months in a freezer at approximately −70° C., and then extracted and analyzed to evaluate long term stability in human plasma. Two levels of extracted QC samples (Low QC and High QC) were re-analyzed after approximately 71 hours in the autosampler at room temperature to evaluate the extract autosampler stability. Two levels of extracted QC samples (Low QC and High QC) were re-analyzed after approximately 8 hours in the freezer at approximately −20° C. to evaluate the extract freeze stability. Three aliquots of a dilution QC sample diluted 10-fold. Triplicate dilutions of the old stock solution (stored at approximately 4° C.) and new stock solutions prepared at intervals of two weeks and one month. Statistical calculations in the report tables were calculated from unrounded concentration values taken directly from the raw data. The concentration values were rounded for display purposes.
Triplicate QC-Low and QC-High samples were extracted and analyzed after these storage conditions. The CV % values for the QC-Low and QC-High stability samples are 7.8% and 2.9%, respectively. To calculate the RE %, the measured mean concentration was compared to the nominal concentration. The RE % values for the QC-Low and QC-High stability samples are 11.8% and −3.4%, respectively.

[2] = Freeze/thaw stability in human urine; format: physicochemical; conditions: stored at −70° C. and thawed, repeated twice, 0.3, 19 and 38 μg/ml
Description: The applicability of the testing methodology to analyze samples stored under different conditions was analyzed. First, to assess short-term stability of DMB in human urine, samples at 0.3, 19 and 38 μg/ml, 92.3% of DMB were maintained unextracted at room temperature and at bench-top light levels for six hours. […] Second, to assess freeze/thaw stability of DMB in human urine, samples at 0.3, 19 and 38 μg/ml, 92.3% of DMB were stored at −70° C. and thawed. This process was repeated twice and samples after each freezing were analyzed for DMB as described. For each concentration and each freezing/thawing sample, the % CV was no more than 15%.

[3] = Storage stability of quality control sample in human urine at −20° C.; format: physicochemical; conditions: storage temperature of −20° C.
Description: In method I, the mobile phase of liquid chromatography was run on 0.1% formic acid in acetonitrile, and the elution volume was 10 ul. In method II, the mobile phase was run in 0.1% formic acid in methanol/water (98/2, volume to volume), and the elution volume was 5 ul.

[4] = Freeze/thaw cycle stability in rat plasma; format: physicochemical; conditions: three freeze/thaw cycles at approximately −70° C.
Description: (§1) For the remaining validation tests, a calibration curve and triplicates QCs at the low, mid and high levels were analyzed with each sample set. The following samples were also analyzed either in conjunction with one of the precision and accuracy runs or in one of the additional validation runs: Samples from six lots of control rat plasma for specificity; Samples from six lots of control rat plasma fortified with internal standard for specificity; Two concentration levels of unextracted QC-samples in triplicate (solvent standards) were analyzed for the evaluation of the recovery of sodium 2,2-dimethylbutyrate and DMV in rat plasma; Two levels of QC samples (Low QC and High QC in triplicate) were subjected to three freeze/thaw cycles at approximately −70° C. prior to extraction to evaluate freeze/thaw stability; Two levels of QC samples (Low QC and High QC in triplicate) were placed on the bench top for approximately 17 hours prior to extraction for the evaluation of the bench top stability; Triplicate low QC samples and triplicate high QC samples were stored for one month and three months in a freezer at approximately −70° C., and then extracted and analyzed to evaluate long term stability in rat plasma; Three aliquots of a dilution QC sample diluted 10-fold.
(§2) The stability of sodium 2,2-dimethylbutyrate in rat plasma was evaluated at approximately −70° C. for three cycles using QC-Low and QC-High samples in triplicate. The freeze time was at least 12-24 hours, with a minimum thaw time of one hour. The CV % values for the QC-Low and QC-High stability samples are 13.3% and 4.6%, respectively. To calculate the RE %, the measured mean concentration was compared to the nominal concentration.

[5] = Freeze/thaw cycle stability in dog plasma; format: physicochemical; conditions: three freeze/thaw cycles at approximately −70° C.
Description: as §1, with “control dog” for “control rat”, “for specificity.” for “for specificity; Samples from six lots of control rat plasma fortified with internal standard for specificity;”, “in dog plasma.” for “in rat plasma;”, “freeze/thaw stability.” for “freeze/thaw stability;”, “top stability.” for “top stability;”
as §2, with “in dog” for “in rat”, “least 12” for “least 12-24”, “are 1.4%” for “are 13.3%”, “and 2.8%,” for “and 4.6%,”, “concentration. The RE % values for the QC-Low and QC-High stability samples are 1.9% and −8.1%, respectively.” for “concentration.”

With CCC(C)(C)C(=O)[O-].[Na+] [Sodium 2,2-Dimethylbutyrate] the “Time stable on bench top” value ([1]; human plasma, ambient bench top storage) was 22.5 h, the “Bench top stability, Mean concentration” value ([1]; 0.6 μg/mL) was 0.671 µg/mL and the “Bench top stability, RE % (mean vs nominal)” value ([1]; 0.6 μg/mL) was 11.8%. The “Bench top stability, Mean concentration” value ([1]; 40 μg/mL) was 38.7 µg/mL, the “Bench top stability, RE % (mean vs nominal)” value ([1]; 40 μg/mL) was −3.4% and the “% CV after freeze/thaw” value [2] was “no more than 15%”. For the same compound, the “Time quality control sample is stable” value [3] was “at least 111 days”, the “Stability after freeze/thaw cycles” value [4] was “stable” and the “Freeze/thaw cycle stability, Mean concentration” value ([4]; QC-High, nominal 40.0 μg/mL) was 41.2 µg/mL. The “Freeze/thaw cycle stability, RE % (mean vs nominal)” value (“Freeze/thaw cycle stability, RE %” below) ([4]; QC-High, nominal 40.0 μg/mL) was 3.1%, the “Freeze/thaw cycle stability, concentration found (replicate)” value (from here on “Freeze/thaw cycle stability … (replicate)”) ([4]; QC-High, nominal 40.0 μg/mL) was 41.7 µg/mL and 39.2 µg/mL and 42.9 µg/mL and the “Freeze/thaw cycle stability, Mean concentration” value ([4]; QC-Low, nominal 0.60 μg/mL) was 0.575 µg/mL. The “Freeze/thaw cycle stability, RE %” value ([4]; QC-Low, nominal 0.60 μg/mL) was −4.1%, the “Freeze/thaw cycle stability … (replicate)” value ([4]; QC-Low, nominal 0.60 μg/mL) was 0.491 µg/mL and 0.595 µg/mL and 0.640 µg/mL and the “Stability after freeze/thaw cycles” value [5] was “stable”. The “Freeze/thaw cycle stability, Mean concentration” value ([5]; QC-High, nominal 40.0 μg/mL) was 36.8 µg/mL, the “Freeze/thaw cycle stability, RE %” value ([5]; QC-High, nominal 40.0 μg/mL) was −8.1% and the “Freeze/thaw cycle stability … (replicate)” value ([5]; QC-High, nominal 40.0 μg/mL) was 36.2 μg/mL (2×) and 37.9 μg/mL. For the same compound, the “Freeze/thaw cycle stability, Mean concentration” value ([5]; QC-Low, nominal 0.60 μg/mL) was 0.612 µg/mL, the “Freeze/thaw cycle stability, RE %” value ([5]; QC-Low, nominal 0.60 μg/mL) was 1.9% and the “Freeze/thaw cycle stability … (replicate)” value ([5]; QC-Low, nominal 0.60 μg/mL) was 0.603 µg/mL and 0.620 µg/mL and 0.612 µg/mL.
